Reference: PMC6812009, “Covalent Aurora A regulation by the metabolic integrator coenzyme A” (Redox Biology, 2019)

Legend:
Assay in all cases: Kinase profiling screen (radioactive filter-binding assay)
Type in all cases: biochemical
[1] = molecular target: Lck (Homo sapiens, UniProt P06239); conditions: 100 μM compound, 50 μM ATP; read-out: Kinase activity, % of activity in the absence of inhibitor
Outline: (§1)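 Across 117 protein kinases, duplicate in vitro measurements were made with CoA, dpCoA and ADP present at 100 μM final. Each reaction used recombinant kinase, a model substrate and an optimal concentration of ATP.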

[2] = molecular target: T1, GCK (Homo sapiens, UniProt Q12851); conditions: 100 μM compound, 20 μM ATP; read-out: Kinase activity, % of activity in the absence of inhibitor
T1 sequence (Q12851 1-820): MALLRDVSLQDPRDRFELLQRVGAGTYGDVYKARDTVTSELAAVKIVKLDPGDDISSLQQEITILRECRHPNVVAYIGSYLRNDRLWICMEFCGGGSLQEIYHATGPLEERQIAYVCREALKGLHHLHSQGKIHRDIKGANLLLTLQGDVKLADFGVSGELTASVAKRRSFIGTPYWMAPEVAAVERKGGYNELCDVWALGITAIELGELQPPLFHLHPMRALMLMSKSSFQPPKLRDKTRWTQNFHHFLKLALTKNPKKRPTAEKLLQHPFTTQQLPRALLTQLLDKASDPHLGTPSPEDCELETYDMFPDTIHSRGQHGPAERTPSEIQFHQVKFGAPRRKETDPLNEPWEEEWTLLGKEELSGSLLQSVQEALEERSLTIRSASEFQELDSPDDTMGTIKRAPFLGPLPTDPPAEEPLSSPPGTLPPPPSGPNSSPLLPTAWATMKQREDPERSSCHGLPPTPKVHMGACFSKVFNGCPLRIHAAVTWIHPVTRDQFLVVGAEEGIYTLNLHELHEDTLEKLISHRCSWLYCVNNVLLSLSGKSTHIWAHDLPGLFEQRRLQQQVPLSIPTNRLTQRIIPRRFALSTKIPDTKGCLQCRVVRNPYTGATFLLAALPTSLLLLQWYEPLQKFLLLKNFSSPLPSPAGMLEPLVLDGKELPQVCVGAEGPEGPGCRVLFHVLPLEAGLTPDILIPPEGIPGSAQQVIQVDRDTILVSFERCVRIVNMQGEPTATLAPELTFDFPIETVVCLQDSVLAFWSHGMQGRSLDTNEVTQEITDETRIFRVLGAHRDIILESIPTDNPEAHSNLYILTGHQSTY
Outline: as §1

[3] = molecular target: T2, DYRK2 (Homo sapiens, UniProt Q92630); conditions: 100 μM compound, 50 μM ATP; read-out: Kinase activity, % of activity in the absence of inhibitor
T2 sequence (Q92630 1-601): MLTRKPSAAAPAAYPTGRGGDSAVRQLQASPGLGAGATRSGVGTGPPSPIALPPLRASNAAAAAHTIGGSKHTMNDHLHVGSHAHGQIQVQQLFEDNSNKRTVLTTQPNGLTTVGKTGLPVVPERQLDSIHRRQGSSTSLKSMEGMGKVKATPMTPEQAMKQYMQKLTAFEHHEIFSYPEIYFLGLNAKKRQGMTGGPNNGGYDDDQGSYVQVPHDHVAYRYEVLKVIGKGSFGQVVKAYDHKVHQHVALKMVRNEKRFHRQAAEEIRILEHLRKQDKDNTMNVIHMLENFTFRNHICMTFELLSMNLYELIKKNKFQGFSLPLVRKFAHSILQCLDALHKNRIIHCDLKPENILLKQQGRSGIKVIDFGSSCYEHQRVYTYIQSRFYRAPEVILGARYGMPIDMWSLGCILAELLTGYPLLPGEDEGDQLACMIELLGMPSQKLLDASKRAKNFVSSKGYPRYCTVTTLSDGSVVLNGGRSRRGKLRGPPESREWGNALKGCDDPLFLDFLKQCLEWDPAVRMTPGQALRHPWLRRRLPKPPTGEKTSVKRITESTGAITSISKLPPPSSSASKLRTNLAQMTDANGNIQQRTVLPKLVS
Outline: as §1

[4] = molecular target: MELK (Homo sapiens, UniProt Q14680); conditions: 100 μM compound, 50 μM ATP; read-out: Kinase activity, % of activity in the absence of inhibitor
Outline: as §1

[5] = molecular target: PIM2 (Homo sapiens, UniProt Q9P1W9); conditions: 100 μM compound, 5 μM ATP; read-out: Kinase activity, % of activity in the absence of inhibitor
Outline: as §1

[6] = molecular target: T3, CHK1 (Homo sapiens, UniProt O14757); conditions: 100 μM compound, 20 μM ATP; read-out: Kinase activity, % of activity in the absence of inhibitor
T3 sequence (O14757 1-476): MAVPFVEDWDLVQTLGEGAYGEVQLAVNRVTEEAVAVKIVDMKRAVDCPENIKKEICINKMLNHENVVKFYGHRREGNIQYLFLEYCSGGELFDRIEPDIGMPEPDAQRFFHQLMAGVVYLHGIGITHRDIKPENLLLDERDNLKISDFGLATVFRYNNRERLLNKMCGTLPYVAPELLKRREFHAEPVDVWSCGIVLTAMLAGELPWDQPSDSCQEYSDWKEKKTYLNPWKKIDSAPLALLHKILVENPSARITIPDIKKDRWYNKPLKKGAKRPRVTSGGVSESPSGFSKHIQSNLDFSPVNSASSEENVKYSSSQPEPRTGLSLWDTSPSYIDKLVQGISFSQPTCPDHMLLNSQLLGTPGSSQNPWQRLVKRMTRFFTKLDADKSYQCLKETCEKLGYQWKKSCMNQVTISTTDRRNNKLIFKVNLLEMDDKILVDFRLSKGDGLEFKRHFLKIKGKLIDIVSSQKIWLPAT
Outline: as §1

[7] = molecular target: MNK1 (Homo sapiens, UniProt Q9BUB5); conditions: 100 μM compound, 50 μM ATP; read-out: Kinase activity, % of activity in the absence of inhibitor
Outline: as §1

[8] = molecular target: MARK3 (Homo sapiens, UniProt P27448); conditions: 100 μM compound, 5 μM ATP; read-out: Kinase activity, % of activity in the absence of inhibitor
Outline: as §1

MARK3, sequence (P27448 whole entry): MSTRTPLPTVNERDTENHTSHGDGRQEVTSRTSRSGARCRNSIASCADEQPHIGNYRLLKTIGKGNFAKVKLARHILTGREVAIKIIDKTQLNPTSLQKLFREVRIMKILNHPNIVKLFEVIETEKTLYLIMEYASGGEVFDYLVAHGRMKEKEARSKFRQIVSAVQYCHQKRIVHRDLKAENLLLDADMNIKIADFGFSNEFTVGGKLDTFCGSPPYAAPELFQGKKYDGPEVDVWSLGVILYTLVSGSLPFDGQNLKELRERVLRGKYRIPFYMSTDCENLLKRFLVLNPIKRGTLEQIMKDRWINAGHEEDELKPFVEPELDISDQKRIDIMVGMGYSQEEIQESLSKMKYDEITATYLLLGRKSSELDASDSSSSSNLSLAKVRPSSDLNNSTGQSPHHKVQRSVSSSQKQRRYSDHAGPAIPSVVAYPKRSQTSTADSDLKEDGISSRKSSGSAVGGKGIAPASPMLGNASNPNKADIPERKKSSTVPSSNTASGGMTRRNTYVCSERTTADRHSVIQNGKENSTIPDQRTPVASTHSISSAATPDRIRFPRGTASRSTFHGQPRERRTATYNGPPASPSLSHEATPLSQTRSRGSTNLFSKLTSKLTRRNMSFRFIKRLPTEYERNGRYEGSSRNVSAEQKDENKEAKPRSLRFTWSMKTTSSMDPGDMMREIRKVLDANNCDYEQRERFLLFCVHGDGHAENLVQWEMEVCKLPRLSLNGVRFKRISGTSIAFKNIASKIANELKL
Lck, sequence (P06239 whole entry): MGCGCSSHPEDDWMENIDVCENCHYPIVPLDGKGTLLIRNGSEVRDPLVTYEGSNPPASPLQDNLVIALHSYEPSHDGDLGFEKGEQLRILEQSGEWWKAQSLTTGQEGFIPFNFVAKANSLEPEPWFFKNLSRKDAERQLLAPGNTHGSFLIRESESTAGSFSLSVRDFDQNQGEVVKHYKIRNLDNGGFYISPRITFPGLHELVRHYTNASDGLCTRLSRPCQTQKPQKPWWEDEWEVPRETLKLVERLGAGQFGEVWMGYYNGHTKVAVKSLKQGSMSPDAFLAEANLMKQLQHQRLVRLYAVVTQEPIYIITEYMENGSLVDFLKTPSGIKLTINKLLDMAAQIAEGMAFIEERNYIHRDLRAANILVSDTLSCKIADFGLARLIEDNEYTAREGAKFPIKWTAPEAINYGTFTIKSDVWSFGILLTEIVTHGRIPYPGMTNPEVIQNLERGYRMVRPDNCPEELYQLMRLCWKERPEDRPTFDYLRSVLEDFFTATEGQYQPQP
PIM2, sequence (Q9P1W9 whole entry): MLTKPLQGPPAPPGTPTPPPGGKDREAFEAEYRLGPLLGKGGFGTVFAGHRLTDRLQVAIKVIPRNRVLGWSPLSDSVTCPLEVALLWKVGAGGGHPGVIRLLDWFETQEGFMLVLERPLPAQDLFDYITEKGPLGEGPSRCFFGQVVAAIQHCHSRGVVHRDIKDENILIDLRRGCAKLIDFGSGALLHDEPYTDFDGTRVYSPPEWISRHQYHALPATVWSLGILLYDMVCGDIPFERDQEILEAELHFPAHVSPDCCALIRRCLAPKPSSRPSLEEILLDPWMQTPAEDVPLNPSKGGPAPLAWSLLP
MNK1, sequence (Q9BUB5 whole entry): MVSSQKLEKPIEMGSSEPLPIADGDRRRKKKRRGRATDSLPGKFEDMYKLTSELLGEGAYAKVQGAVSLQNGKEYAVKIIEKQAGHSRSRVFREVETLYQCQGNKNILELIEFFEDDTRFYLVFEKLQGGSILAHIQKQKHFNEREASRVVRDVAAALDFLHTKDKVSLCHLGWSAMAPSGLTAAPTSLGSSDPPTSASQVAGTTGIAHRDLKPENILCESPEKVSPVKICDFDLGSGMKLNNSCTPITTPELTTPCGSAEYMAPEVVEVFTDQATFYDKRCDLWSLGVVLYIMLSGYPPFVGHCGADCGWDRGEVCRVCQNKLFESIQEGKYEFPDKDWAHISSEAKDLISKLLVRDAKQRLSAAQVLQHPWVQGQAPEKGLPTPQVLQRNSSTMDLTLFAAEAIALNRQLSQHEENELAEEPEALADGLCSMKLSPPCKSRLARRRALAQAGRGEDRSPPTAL
MELK, sequence (Q14680 whole entry): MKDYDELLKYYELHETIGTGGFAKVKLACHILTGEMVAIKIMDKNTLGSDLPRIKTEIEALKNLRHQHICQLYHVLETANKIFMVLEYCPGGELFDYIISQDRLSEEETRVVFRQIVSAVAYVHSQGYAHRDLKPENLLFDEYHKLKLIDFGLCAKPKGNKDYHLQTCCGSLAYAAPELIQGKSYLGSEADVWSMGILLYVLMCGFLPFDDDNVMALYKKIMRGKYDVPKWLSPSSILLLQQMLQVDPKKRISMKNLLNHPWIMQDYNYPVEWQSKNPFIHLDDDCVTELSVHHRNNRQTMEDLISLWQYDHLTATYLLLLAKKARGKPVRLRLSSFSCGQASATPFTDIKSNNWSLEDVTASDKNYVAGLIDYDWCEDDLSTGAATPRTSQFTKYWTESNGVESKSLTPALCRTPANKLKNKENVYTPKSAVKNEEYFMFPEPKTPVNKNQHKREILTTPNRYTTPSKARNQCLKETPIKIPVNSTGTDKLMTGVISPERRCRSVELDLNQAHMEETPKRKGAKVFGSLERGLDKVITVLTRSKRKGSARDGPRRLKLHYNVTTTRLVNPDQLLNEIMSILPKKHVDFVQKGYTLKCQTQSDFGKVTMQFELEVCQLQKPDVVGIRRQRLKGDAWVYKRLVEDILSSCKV

Compound	activity at 100 µM [1] [%]	activity at 100 µM [2] [%]	activity at 100 µM [3] [%]	activity at 100 µM [4] [%]	activity at 100 µM [5] [%]	activity at 100 µM [6] [%]	activity at 100 µM [7] [%]	activity at 100 µM [8] [%]
CC(C)(COP(=O)(O)OP(=O)(O)OC[C@H]1O[C@@H](n2cnc3c(N)ncnc32)[C@H](O)[C@@H]1OP(=O)(O)O)[C@@H](O)C(=O)NCCC(=O)NCCS [CoA, Coenzyme A]	100	109	102	76.3	111	123	150	88.9
CC(C)(COP(=O)(O)OP(=O)(O)OCC1OC(n2cnc3c(N)ncnc32)C(O)C1O)C(O)C(=O)NCCC(=O)NCCS (stereo not drawn) [dpCoA, dephospho-CoA]	69	71.2	77	104	62.9	78.8	84.2	46.2
Nc1ncnc2c1ncn2C1OC(COP(=O)(O)OP(=O)(O)O)C(O)C1O (stereo not drawn) [ADP]	35.1	56.5	42.4	63.5	9.8	47.6	60.7	14.8
